{
  "source": "PubChem BioAssay AID328",
  "about": "(DTP/NCI, 2004)",
  "key": {"[1]": {"system": "BDF1 mice, P388 leukemia ip", "test": "NCI In Vivo Anticancer Drug Screen. Data for tumor model P388 Leukemia (intraperitoneal) in B6D2F1 (BDF1) mice", "conditions": "endpoint: mean survival time, schedule: Q01DX009 (ip), vehicle: water, higher = longer survival", "how_it_was_run": "(§1)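 Antitumour effect was judged in vivo: survival in drug-treated mice, normalised to that of vehicle-dosed controls, gives the reported T/C.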"}, "[2]": {"system": "BDF1 mice, P388 leukemia ip, median survival T/C", "test": "NCI In Vivo Anticancer Drug Screen. Data for tumor model P388 Leukemia (intraperitoneal) in B6D2F1 (BDF1) mice", "conditions": "endpoint: median survival time, higher = longer survival", "how_it_was_run": "as §1"}, "[3]": {"conditions": "dose: 100.0 mg/kg/injection, schedule: Q01DX009 (ip), vehicle: Klucel (hydroxypropylcellulose) (HPC)"}, "[4]": {"conditions": "dose: 200.0 mg/kg/injection, schedule: Q01DX009 (ip), vehicle: Klucel (hydroxypropylcellulose) (HPC)"}, "[5]": {"conditions": "dose: 200.0 mg/kg/injection, schedule: Q04DX003 (ip), vehicle: saline"}},
  "note": "Where “and” joins values, the source holds several entries; their conditions need not be identical. Identical values can stand only once. Toxic doses and inconclusive results are not listed.",
  "data": [
    {"compound": "COc1cc2cnccc2cc1OCc1ccccc1", "values": [
      {"measurement": "T/C", "setting": "[1]; dose: 6.25 mg/kg/injection", "result": "95 % of control"},
      {"measurement": "T/C", "setting": "[1]; dose: 12.5 mg/kg/injection", "result": "100 % of control"},
      {"measurement": "T/C", "setting": "[1]; dose: 25.0 mg/kg/injection", "result": "106 % of control"},
      {"measurement": "T/C", "setting": "[1]; dose: 50.0 mg/kg/injection", "result": "108 % of control"},
      {"measurement": "T/C", "setting": "[1]; dose: 100.0 mg/kg/injection", "result": "90 % of control"},
      {"measurement": "T/C", "setting": "[1]; dose: 200.0 mg/kg/injection", "result": "100 % of control"}
    ]},
    {"compound": "CC(=O)OCC(=O)[C@@]1(O)CC[C@H]2[C@@H]3CCC4=CC(=O)CC[C@]4(C)[C@@]3(Cl)[C@@H](O)C[C@@]21C", "values": [
      {"measurement": "T/C", "setting": "[2]; dose: 18.7 mg/kg/injection, schedule: Q04DX003 (ip), vehicle: saline with Tween-80", "result": "109 % of control"},
      {"measurement": "T/C", "setting": "[2]; dose: 37.5 mg/kg/injection, schedule: Q04DX003 (ip), vehicle: saline with Tween-80", "result": "109 % of control"},
      {"measurement": "T/C", "setting": "[2]; dose: 66.0 mg/kg/injection, schedule: Q04DX003 (ip), vehicle: saline with Tween-80", "result": "113 % of control"},
      {"measurement": "T/C", "setting": "[2]; dose: 75.0 mg/kg/injection, schedule: Q04DX003 (ip), vehicle: saline with Tween-80", "result": "118 % of control"},
      {"measurement": "T/C", "setting": "[2]; dose: 150.0 mg/kg/injection, schedule: Q04DX003 (ip), vehicle: saline with Tween-80", "result": "118 % of control"}
    ]},
    {"compound": "C=C[P+](c1ccccc1)(c1ccccc1)c1ccccc1", "values": [
      {"measurement": "T/C", "setting": "[2]; dose: 1.0 mg/kg/injection, schedule: Q01DX009 (ip), vehicle: saline", "result": "110 % of control"},
      {"measurement": "T/C", "setting": "[2]; dose: 1.5 mg/kg/injection, schedule: Q01DX010 (ip), vehicle: saline", "result": "95 % of control"},
      {"measurement": "T/C", "setting": "[2]; dose: 2.5 mg/kg/injection, schedule: Q01DX009 (ip), vehicle: saline", "result": "150 % of control"},
      {"measurement": "T/C", "setting": "[2]; dose: 3.0 mg/kg/injection, schedule: Q01DX010 (ip), vehicle: saline", "result": "116 % of control"},
      {"measurement": "T/C", "setting": "[2]; dose: 3.3 mg/kg/injection, schedule: Q04DX003 (ip), vehicle: saline", "result": "120 % of control"},
      {"measurement": "T/C", "setting": "[2]; dose: 3.7 mg/kg/injection, schedule: Q01DX009 (ip), vehicle: saline", "result": "89 % of control"},
      {"measurement": "T/C", "setting": "[2]; dose: 5.0 mg/kg/injection, schedule: Q01DX009 (ip), vehicle: saline", "result": "95 % of control"}
    ]},
    {"compound": "CCOC(=S)S", "values": [
      {"measurement": "T/C", "setting": "[2]; dose: 100.0 mg/kg/injection, schedule: Q01DX009 (ip), vehicle: saline", "result": "100 % of control"},
      {"measurement": "T/C", "setting": "[2]; dose: 200.0 mg/kg/injection, schedule: Q01DX009 (ip), vehicle: saline", "result": "95 % of control"}
    ]},
    {"compound": "CC(=O)[C@H]1[C@H](C)C[C@H]2[C@@H]3CCC4=CC(=O)CC[C@]4(C)[C@@]3(F)[C@@H](O)C[C@@]21C", "values": [
      {"measurement": "T/C", "setting": "[2]; [3]", "result": "105 % of control"},
      {"measurement": "T/C", "setting": "[2]; dose: 100.0 mg/kg/injection, schedule: Q04DX003 (ip), vehicle: alcohol", "result": "120 % of control"},
      {"measurement": "T/C", "setting": "[2]; dose: 132.0 mg/kg/injection, schedule: Q04DX003 (ip), vehicle: saline", "result": "115 % of control"},
      {"measurement": "T/C", "setting": "[2]; [4]", "result": "120 % of control"},
      {"measurement": "T/C", "setting": "[2]; [5]", "result": "104 % of control and 120 % of control"},
      {"measurement": "T/C", "setting": "[2]; dose: 300.0 mg/kg/injection, schedule: Q04DX003 (ip), vehicle: saline", "result": "110 % of control and 113 % of control"},
      {"measurement": "T/C", "setting": "[2]; dose: 400.0 mg/kg/injection, schedule: Q01DX009 (ip), vehicle: Klucel (hydroxypropylcellulose) (HPC)", "result": "120 % of control"},
      {"measurement": "T/C", "setting": "[2]; dose: 400.0 mg/kg/injection, schedule: Q04DX003 (ip), vehicle: alcohol", "result": "105 % of control"}
    ]},
    {"compound": "C1CCCC(NC2=NCCO2)CC1", "values": [
      {"measurement": "T/C", "setting": "[2]; dose: 6.25 mg/kg/injection, schedule: Q04DX003 (ip), vehicle: saline with Tween-80", "result": "100 % of control"},
      {"measurement": "T/C", "setting": "[2]; dose: 12.5 mg/kg/injection, schedule: Q04DX003 (ip), vehicle: saline with Tween-80", "result": "100 % of control"},
      {"measurement": "T/C", "setting": "[2]; dose: 25.0 mg/kg/injection, schedule: Q04DX003 (ip), vehicle: saline with Tween-80", "result": "104 % of control"}
    ]},
    {"compound": "NC(Cn1cc(N(CCCl)CCCl)c(=O)[nH]c1=O)C(=O)O", "note": "(stereo not given)", "values": [
      {"measurement": "T/C", "setting": "[2]; dose: 6.0 mg/kg/injection, schedule: Q01DX009 (ip), vehicle: saline", "result": "175 % of control"},
      {"measurement": "T/C", "setting": "[2]; dose: 12.0 mg/kg/injection, schedule: Q01DX009 (ip), vehicle: saline", "result": "189 % of control"},
      {"measurement": "T/C", "setting": "[2]; dose: 24.0 mg/kg/injection, schedule: Q01DX009 (ip), vehicle: saline", "result": "215 % of control"}
    ]},
    {"compound": "O=C(Nc1ccccc1O)c1ccccc1", "values": [
      {"measurement": "T/C", "setting": "[2]; dose: 100.0 mg/kg/injection, schedule: Q04DX003 (ip), vehicle: saline sonified", "result": "90 % of control"},
      {"measurement": "T/C", "setting": "[2]; dose: 200.0 mg/kg/injection, schedule: Q04DX003 (ip), vehicle: saline sonified", "result": "100 % of control"},
      {"measurement": "T/C", "setting": "[2]; dose: 400.0 mg/kg/injection, schedule: Q04DX003 (ip), vehicle: saline sonified", "result": "90 % of control"}
    ]},
    {"compound": "Oc1ccc(CNCCNCCNCc2ccc(O)cc2)cc1", "values": [
      {"measurement": "T/C", "setting": "[2]; dose: 12.5 mg/kg/injection, schedule: Q04DX003 (ip), vehicle: saline", "result": "100 % of control"},
      {"measurement": "T/C", "setting": "[2]; dose: 25.0 mg/kg/injection, schedule: Q04DX003 (ip), vehicle: saline", "result": "107 % of control"},
      {"measurement": "T/C", "setting": "[2]; dose: 50.0 mg/kg/injection, schedule: Q04DX003 (ip), vehicle: saline", "result": "109 % of control"},
      {"measurement": "T/C", "setting": "[2]; dose: 100.0 mg/kg/injection, schedule: Q04DX003 (ip), vehicle: saline", "result": "100 % of control"},
      {"measurement": "T/C", "setting": "[2]; [5]", "result": "105 % of control"}
    ]},
    {"compound": "CC(C)(C)NC(=S)Nc1ccc2c(c1)nc(-c1ccccc1)c1cc(NC(=S)NC(C)(C)C)ccc12", "values": [
      {"measurement": "T/C", "setting": "[2]; dose: 100.0 mg/kg/injection, schedule: Q04DX003 (ip), vehicle: saline with Tween-80", "result": "111 % of control"},
      {"measurement": "T/C", "setting": "[2]; dose: 200.0 mg/kg/injection, schedule: Q04DX003 (ip), vehicle: saline with Tween-80", "result": "100 % of control"}
    ]},
    {"compound": "CCOC(=O)c1cnc(=S)[nH]c1N", "values": [
      {"measurement": "T/C", "setting": "[2]; dose: 50.0 mg/kg/injection, schedule: Q01DX009 (ip), vehicle: Klucel (hydroxypropylcellulose) (HPC)", "result": "95 % of control"},
      {"measurement": "T/C", "setting": "[2]; dose: 50.0 mg/kg/injection, schedule: Q04DX003 (ip), vehicle: Klucel (hydroxypropylcellulose) (HPC)", "result": "109 % of control"},
      {"measurement": "T/C", "setting": "[2]; [3]", "result": "100 % of control"},
      {"measurement": "T/C", "setting": "[2]; dose: 100.0 mg/kg/injection, schedule: Q04DX003 (ip), vehicle: Klucel (hydroxypropylcellulose) (HPC)", "result": "100 % of control"},
      {"measurement": "T/C", "setting": "[2]; [4]", "result": "95 % of control"},
      {"measurement": "T/C", "setting": "[2]; dose: 200.0 mg/kg/injection, schedule: Q04DX003 (ip), vehicle: Klucel (hydroxypropylcellulose) (HPC)", "result": "109 % of control"}
    ]}
  ]
}
